Patent publication US11072601B2, “μ-opioid receptor agonist and preparation method therefor and use thereof in field of medicine” (SHANGHAI SYNERGY PHARMACEUTICAL SCIENCES CO., LTD., priority 2017, dated 2021)

Assays:
μ opioid receptor (MOR) = biological target: T1, μ opioid receptor (MOR) (Homo sapiens, UniProt P35372); assay: cell-based; conditions: HEK293 stably expressing μ opioid receptor, FLIPR calcium
T1 construct: host or cells: HEK293

[1] = biological target: T2, cAMP pathway of MOR receptor (Homo sapiens, UniProt P35372); assay: cell-based; conditions: cAMP Hunter HEK293 cells, forskolin-induced cAMP; read-out: EC50 of cAMP levels affected by agonistic effect on MOR
T2 construct: host or cells: HEK293 (cAMP Hunter cell line)

[2] = Pharmacokinetic test in rats, intravenous; format: in vivo; conditions: male, SD, rat, plasma, intravenous 1 mg/kg; for AUC: read-out: curve area (AUC); for half-life: read-out: half life (T½) (converted); for Cmax: read-out: plasma concentration (Cmax)
From the text: 8-week-old male SD rats weighing 200-300 g were used as experimental animals, and LC/MS/MS method was used to determine the drug concentration in plasma at different times after the administration of the compound of Example H01, the compound of Example H04, the compound of Example H05, the compound of Example H07, the compound of Example H16, the compound of Example H17, the compound of Example H18, the compound of Example H21, and the compound of Example H24. The pharmacokinetic behavior of the compounds of the present invention in rats was studied, and its pharmacokinetic characteristics were evaluated.
A certain amount of the compounds were weighed, and dissolved in ethanol/castor oil/water=10/10/80 to form a uniform solution.
The above compounds were administered intravenously to rats at a dose of 1 mg/kg, and 0.2 ml of blood was collected from the orbit at 0.083, 0.25, 0.5, 1.0, 2.0, 4.0, 6.0, 8.0, 12.0, 24.0 hours before and after administration, and placed in an anticoagulant tube, the plasma was separated by centrifugation at 6,000 rpm for 10 minutes at 4° C., and stored at −80° C.
50 μL of plasma was taken at different times, 150 μL of acetonitrile solution containing internal standard tolbutamide (200 ng/mL) was added, the system was mixed and shaked for 5 minutes, 12000 rpm, centrifuged for 5 minutes, 100 μL of supernatant was removed, and then mixed with 200 μL of water, then the sample was loaded for analysis. The internal standard tolbutamide solid (Aladdin, T129578) powder was dissolved in DMSO to prepare into a 1 mg/mL stock solution. The stock solution was diluted with 100% acetonitrile to obtain a solution of 200 ng/mL as a protein precipitator.
The liquid chromatography system was an LC-20AD UFLC high performance liquid chromatography system (Shimadzu, LC-20AD). The mass spectrometry system was an AB Sciex API4000 triple quadrupole mass spectrometer equipped with an electrospray ionization source (ESI) (Applied Biosystems, Canada). The software used to control the liquid-mass coanalyzer and quantitative analysis was Analyst 1.6 (Applied Biosystems, Canada), and the pharmacokinetic parameters were analyzed using WinNonlin (version 5.2, Pharsight, Mountain View, Calif.) non-compartment model.
Liquid chromatographic separation was performed using AQ-C18 column (50×2.1 mm, internal diameter of […]). The column temperature was maintained at room temperature.
The compound to be tested was dissolved in DMSO to prepare a stock solution with a concentration of 1 mg/mL, and diluted with 70% acetonitrile to obtain a series of standard working solutions with concentrations of 30, 10, 3, 1, 0.3, 0.1, 0.03, and 0.01. μg/mL, and a series of standard quality control solutions (24, 8 and 0.03 μg/mL). 5 μL of standard solution and 45 μL of blank plasma matrix were mixed uniformity to obtain standard solutions (3000, 1000, 300, 100, 30, 10, 3, and 1 ng/mL) and quality control standards (plasma samples: 2400, 800, 80, and 3 ng/mL) at each concentration point of the standard curve.

T2 sequence (P35372 whole entry): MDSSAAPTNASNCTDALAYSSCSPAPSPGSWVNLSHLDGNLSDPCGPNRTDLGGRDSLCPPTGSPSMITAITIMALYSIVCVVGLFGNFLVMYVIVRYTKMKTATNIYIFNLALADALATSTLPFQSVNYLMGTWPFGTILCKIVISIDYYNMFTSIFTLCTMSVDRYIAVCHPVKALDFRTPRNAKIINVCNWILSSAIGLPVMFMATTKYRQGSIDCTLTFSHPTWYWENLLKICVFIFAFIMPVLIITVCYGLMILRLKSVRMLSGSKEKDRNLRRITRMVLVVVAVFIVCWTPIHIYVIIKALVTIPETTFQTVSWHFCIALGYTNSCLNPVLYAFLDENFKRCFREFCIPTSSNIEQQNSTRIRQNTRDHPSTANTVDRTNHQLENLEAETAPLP
T1 sequence (P35372 whole entry, species assumed): as the sequence (P35372 whole entry) above

SMILES	EC50 (μ opioid receptor (MOR))	EC50 [1]	AUC [2]	half-life [2]	Cmax [2]
Cc1c(Cl)cccc1CNCCC1(c2ccccn2)CCOC2(CCCC2)C1 (stereo not drawn) [Example H04, (3-chloro-2-methylbenzyl)-[2-(9-(pyridin-2-yl)-6-oxaspiro[4.5]decan-9-yl)ethyl]amine]	6.05 nM	4.36 nM	494 ± 34 ng·h/mL	2.92 ± 0.02 h	378 ± 17.5 ng/mL
FC(F)Oc1ccccc1CNCCC1(c2ccccn2)CCOC2(CCCC2)C1 (stereo not drawn) [Example H16, (2-difluoromethoxybenzyl)-[2-(9-(pyridin-2-yl)-6-oxaspiro[4.5]decan-9-yl)ethyl]amine]	9.06 nM	1.36 nM	1190 ± 54 ng·h/mL	5.3 ± 0.02 h	820 ± 37.5 ng/mL
FC(F)(F)Oc1ccc(Cl)cc1CNCCC1(c2ccccn2)CCOC2(CCCC2)C1 (stereo not drawn) [Example H17, (5-chloro-2-trifluoromethoxybenzyl)-[2-(9-(pyridin-2-yl)-6-oxaspiro[4.5]decan-9-yl)ethyl]amine]	8.68 nM	1.89 nM	482 ± 31.8 ng·h/mL	1.45 ± 0.15 h	388 ± 23.3 ng/mL
FC(F)Oc1ccsc1CNCCC1(c2ccccn2)CCOC2(CCCC2)C1 (stereo not drawn) [Example H18, ((3-difluoromethoxythiophen-2-yl)methyl)-[2-(9-(pyridin-2-yl)-6-oxaspiro[4.5]decan-9-yl)ethyl]a mine]	7.32 nM	2.35 nM	582 ± 11.8 ng·h/mL	3.45 ± 0.55 h	483 ± 23.3 ng/mL
Fc1ccc(C2(CCNCc3ccccc3OC(F)(F)F)CCOC3(CCCC3)C2)nc1 (stereo not drawn) [Example H21, {2-[9-(5-fluoro-pyridin-2-yl)-6-oxa-spiro[4.5]decan-9-yl]-ethyl}-(2-(trifluoromethoxy)-phenmethyl)-amine]	4.02 nM	2.57 nM	382 ± 10.8 ng·h/mL	2.05 ± 0.25 h	283 ± 13.3 ng/mL
CNc1ccsc1C(=O)NCCC1(c2ccccn2)CCOC2(CCCC2)C1 (stereo not drawn) [Example H24, 3-methylamino-thiophene-2-carboxylic acid [2-(9-pyridin-2-yl-6-oxa-spiro[4.5]decan-9-yl)-ethyl]-amide]	10.7 nM	3.74 nM	682 ± 21 ng·h/mL	3.05 ± 0.15 h	583 ± 23.3 ng/mL
